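Protocol summary: plate cells (96-well), add compound at 5 concentrations, incubate 48 h, interpolate endpoints linearly. Abbreviation: GI50, concentration required for 50% inhibition of growth. TGI marks complete inhibition of growth.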
Key:
Test in all cases: NCI tumour cell line growth inhibition, 48 h
[1] = test system: 786-0 renal
[2] = test system: A498 renal
[3] = test system: A549 NSCLC
[4] = test system: ACHN renal
[5] = test system: CAKI-1 renal
[6] = test system: COLO 205 colon
[7] = test system: DU-145 prostate
[8] = test system: EKVX NSCLC
[9] = test system: HCC-2998 colon
[10] = test system: HCT-116 colon
[11] = test system: HCT-15 colon
[12] = test system: HL-60(TB) leukemia
[13] = test system: HOP-62 NSCLC
[14] = test system: HOP-92 NSCLC
[15] = test system: HS 578T breast
[16] = test system: HT29 colon
[17] = test system: IGROV1 ovarian
[18] = test system: K-562 leukemia
[19] = test system: KM12 colon
[20] = test system: LOX IMVI melanoma
[21] = test system: M14 melanoma
[22] = test system: MALME-3M melanoma
[23] = test system: MCF7 breast
[24] = test system: MDA-MB-231 breast
[25] = test system: MDA-MB-435
[26] = test system: MOLT-4 leukemia
[27] = test system: NCI-H226 lung
[28] = test system: NCI-H23 lung
[29] = test system: NCI-H460 lung
[30] = test system: NCI-H522 lung
[31] = test system: NCI/ADR-RES ovarian
[32] = test system: OVCAR-3 ovarian
[33] = test system: OVCAR-4 ovarian
[34] = test system: OVCAR-5 ovarian
[35] = test system: PC-3 prostate
[36] = test system: RPMI-8226 leukemia
[37] = test system: SF-268 CNS
[38] = test system: SF-295 CNS
[39] = test system: SF-539 CNS
[40] = test system: SK-MEL-2 melanoma
[41] = test system: SK-MEL-28 melanoma
[42] = test system: SK-MEL-5 melanoma
[43] = test system: SK-OV-3 ovarian
[44] = test system: SN12C renal
[45] = test system: SNB-19 CNS
[46] = test system: SNB-75 CNS
[47] = test system: SW-620 colon
[48] = test system: T-47D breast
[49] = test system: TK-10 renal
[50] = test system: U251 CNS
[51] = test system: UACC-62 melanoma
[52] = test system: UO-31 renal

## Nc1c(C(=O)N/N=C/c2ccc(-c3ccc(Cl)cc3)o2)cnn1-c1ccnc2c(C(F)(F)F)cccc12
[1]
  GI50: > 100 µM
  TGI: > 100 µM
[2]
  GI50: > 100 µM
  TGI: > 100 µM
[3]
  GI50: 83.9 µM
  TGI: > 100 µM
[4]
  GI50: > 100 µM
  TGI: > 100 µM
[5]
  GI50: > 100 µM
  TGI: > 100 µM
[6]
  GI50: > 100 µM
  TGI: > 100 µM
[7]
  GI50: > 100 µM
  TGI: > 100 µM
[8]
  GI50: > 100 µM
  TGI: > 100 µM
[9]
  GI50: > 100 µM
  TGI: > 100 µM
[10]
  GI50: > 100 µM
  TGI: > 100 µM
[11]
  GI50: > 100 µM
  TGI: > 100 µM
[12]
  GI50: > 100 µM
  TGI: > 100 µM
[13]
  GI50: > 100 µM
  TGI: > 100 µM
[14]
  GI50: 50.7 µM
  TGI: > 100 µM
[15]
  GI50: > 100 µM
  TGI: > 100 µM
[16]
  GI50: 77.4 µM
  TGI: > 100 µM
[17]
  GI50: > 100 µM
  TGI: > 100 µM
[18]
  GI50: 97.7 µM
  TGI: > 100 µM
[19]
  GI50: > 100 µM
  TGI: > 100 µM
[20]
  GI50: > 100 µM
  TGI: > 100 µM
[21]
  GI50: > 100 µM
  TGI: > 100 µM
[22]
  GI50: > 100 µM
  TGI: > 100 µM
[23]
  GI50: > 100 µM
  TGI: > 100 µM
[24]
  GI50: > 100 µM
  TGI: > 100 µM
[25]
  GI50: > 100 µM
  TGI: > 100 µM
[26]
  GI50: 50.8 µM
  TGI: > 100 µM
[27]
  GI50: > 100 µM
  TGI: > 100 µM
[28]
  GI50: > 100 µM
  TGI: > 100 µM
[29]
  GI50: > 100 µM
  TGI: > 100 µM
[30]
  GI50: > 100 µM
  TGI: > 100 µM
[31]
  GI50: > 100 µM
  TGI: > 100 µM
[32]
  GI50: > 100 µM
  TGI: > 100 µM
[33]
  GI50: 72.5 µM
  TGI: > 100 µM
[34]
  GI50: > 100 µM
  TGI: > 100 µM
[35]
  GI50: 35 µM
  TGI: > 100 µM
[36]
  GI50: 0.496 µM
  TGI: > 100 µM
[37]
  GI50: > 100 µM
  TGI: > 100 µM
[38]
  GI50: > 100 µM
  TGI: > 100 µM
[39]
  GI50: > 100 µM
  TGI: > 100 µM
[40]
  GI50: > 100 µM
  TGI: > 100 µM
[41]
  GI50: > 100 µM
  TGI: > 100 µM
[42]
  GI50: 49.1 µM
  TGI: > 100 µM
[43]
  GI50: > 100 µM
  TGI: > 100 µM
[44]
  GI50: > 100 µM
  TGI: > 100 µM
[45]
  GI50: > 100 µM
  TGI: > 100 µM
[46]
  GI50: 65.4 µM
  TGI: > 100 µM
[47]
  GI50: > 100 µM
  TGI: > 100 µM
[48]
  GI50: 42.4 µM
  TGI: > 100 µM
[49]
  GI50: > 100 µM
  TGI: > 100 µM
[50]
  GI50: > 100 µM
  TGI: > 100 µM
[51]
  GI50: > 100 µM
  TGI: > 100 µM
[52]
  GI50: > 100 µM
  TGI: > 100 µM
